Reference: EP0075047A1, “1-(Substituted phenylthiocarbamyl) 3,3-disubstituted formamidines and their production and pharmaceutical compositions containing them” (STAUFFER CHEMICAL COMPANY, priority 1981, dated 1983)
Counter-ions that a name gives are not always drawn.

Legend:
adjuvant arthritis = test: Adjuvant arthritis inhibition (hind-foot volume, primary and secondary lesions); assay type: in vivo, Wistar male rats (Taiwan strain); conditions: five daily doses, rat; for Percent Reduction in Edema of the Primary Lesion: injected right hind paw measured four hours after fifth dose; for Percent Reduction in Edema of the Secondary Lesion: uninjected foot measured fourteen days after adjuvant inoculation
Excerpt: (§1) The first test is for adjuvant arthritis inhibition and the second, an anti-edema test, involves the diminution of experimental edema induced in the hind paw of a rat by the injection of carrageenin.
This test was run according to the test procedure recited by VanArman, G. C., Nuss, G. W. and Risley, E. A., J. Pharmacol..Exper. Terap., 187:400-413, 1973. The following is a description of the test: • The hind-foot volumes of five Wistar male. rats (Taiwan strain) weighing 130-160 g each were measured by fluid displacement immediately prior to intraplantar administration (right hind paw) of 0.1 ml of an adjuvant suspension containing 5 milligrams (mg) Mycobacterium butyricum bacilli suspended in heavy mineral oil. Test compounds were orally administered to the animals for five days beginning the day before injection of the adjuvant. Four hours after the fifth daily drug dose the volume of the right hind paw (primary lesion) was measured for determination of any acute anti-inflammatory effect. Fourteen days after adjuvant inoculation the volume of the uninjected foot was measured (secondary lesion) for determination of prolonged anti-inflammatory effect or immunosuppressant effect. The percent reduction in foot volume was calculated for each hind paw in relation to corresponding control values determined simultaneously. A greater than 30 percent reduction in volume of either paw is considered a significant effect. Reduction of the primary lesion without effect on the secondary lesion denotes acute anti-inflammatory activity of short to moderate duration.

[1] = test system: carrigeenan-induced swelling; test: Anti-edema test (carrageenin-induced hind paw edema); assay type: in vivo, male Wistar rats (Taiwan strain); conditions: one hour before carrigeenan, measured three hours after injection, rat
Protocol: as §1
Anti-edema effect was determined according to the test procedure recited by Winter, C.A., Risley, E. A., and Nuss, G. W., Proc. Exper. Biol. Med. 111:544-547, 1962. For this test, three male Wistar rats (Taiwan strain) weighing 100-120 g each are orally dosed with test compound dissolved or suspended in 3 ml of water. One hour later, the plantar surface of the right hind paw was injected with 0.1 ml of a 1 percent suspension of carrigeenan in saline and the left paw was similarly injected with saline only. Three hours after the injection the volume of both hind paw was measured by fluid displacement and the percent decrease in carrigeenan-induced swelling (volume of carrigeenan injected foot minus saline injected foot) was determined by comparison with untreated (no test compound) animals. Greater than 30 percent inhibition is considered evidence of an anti-edema effect.

Systolic blood pressure = test: Anti-hypertensive screening (systolic blood pressure by tail cuff); assay type: in vivo, normotensive Wistar rats (Taiwan strain); conditions: 100 mg/kg oral, rat
Protocol: This test was run according to the test procedure recited by Nagoaka, A., Kikuchi, K. and Aramaki, Y., Jap. J. Pharmacol., 19:401-408, 1969. For this test, two normotensive Wistar rats (Taiwan strain) were placed in perspex holders and then placed in a heated chamber at 40°C for 4-6 minutes before treatment. They were maintained there throughout each experiment. Systolic blood pressure was recorded by indirect means employing a tail cuff and pneumatic sensor device applied to the base of the animals' tails. The device was coupled to a programmed Narco-Biosystems sphygmomano meter (Model PE-300), an instrument for measuring blood pressure, and Sanei polygraph. After recording suitably steady blood pressure readings, test drugs were orally administered and blood pressure checked again 2, 4 and 6 hours after drug administration. A mean decrease of more than 10 percent from the pretreatment value at any two consecutive measurement intervals is considered evidence of hypotensive effect.

Row | Compound | Percent Reduction in Edema of the Primary Lesion (adjuvant arthritis; 100 mg/kg oral) | Percent Reduction in Edema of the Secondary Lesion (adjuvant arthritis; 100 mg/kg oral) | Percent Mean Decrease in Systolic Blood Pressure (Systolic blood pressure; 2 hours after administration) | Percent Mean Decrease in Systolic Blood Pressure (Systolic blood pressure; 4 hours after administration) | Percent Mean Decrease in Systolic Blood Pressure (Systolic blood pressure; 6 hours after administration) | Reduction of Induced Edema ([1]; 100 mg/kg oral) | also measured
1 | COc1ccc(NC(=S)N=CN(C)C)cc1 [Compound 1, 1-(p-methoxyphenylthiocarbamyl) 3,3-dimethyl formamidine hydrochloride] |  |  |  |  |  |  | Percent Reduction in Edema of the Primary Lesion (adjuvant arthritis; 5 mg/kg oral): 39%; Percent Reduction in Edema of the Secondary Lesion (adjuvant arthritis; 5 mg/kg oral): 35%; Reduction of Induced Edema ([1]; 5 mg/kg oral): 35%
2 | Cc1ccc(NC(=S)N=CN(C)C)c(C)c1 [Compound 4] | 0% | 0% | 4% | 17% | 15% |  | 
3 | C[C@](N)(Cc1ccc(O)c(O)c1)C(=O)O [α-methyl 3,4-dihydroxy-phenylalanine, reference compound] |  |  | 11% | 21% | 19% |  | 
4 | CN(C)C=NC(=S)Nc1ccc(Cl)cc1 [Compound 2] |  |  |  |  |  |  | Reduction of Induced Edema ([1]; 25 mg/kg oral): 32%
5 | CCCCC1C(=O)N(c2ccccc2)N(c2ccccc2)C1=O [phenylbutazone, reference compound] |  |  |  |  |  | 41% | 
6 | CCc1cccc(CC)c1NC(=S)N=CN(C)C [Compound 3] | 39% | 31% |  |  |  | 33% | 
